Like-named read-outs stand apart in the source and are kept apart here.
Assays:
Test in all cases: Postemergence herbicide evaluation, percent reduction in plant size vs untreated control, 21 days after treatment
Amaranthus rudis (AMATA) = assay type: in vivo, Amaranthus rudis (tall water hemp); details: Amaranthus tuberculatus, post-emergence, 504 h, AMATA, postemergence, read-out: Control/Injury; for pest or weed control at 140 g/ha: rate 140 g ae/ha; for pest or weed control at 280 g/ha: rate 280 g ae/ha
Method: (§1) Plants were grown in a soil media composed of 90% by volume Promix BX (Premier Tech Horticulture, Quakertown, PA) and 10% Profile Greens Grade (Profile Products LLC, Buffalo Grove, IL). Promix BX contains approximately 83% Sphagnum Peat Moss, 13% Perlite, 5% vermiculite, and proprietary amounts of limestone, starter fertilizer, and wetting agent. Profile Greens Grade is a sand-sized granule formed from calcining illite and montmorillonite clay. Several seeds of each species were planted in 10 cm square pots and top watered twice daily. Plant material was propagated in a warm greenhouse with temperature ranging from 25 to 28° C. and 50 to 60% relative humidity at the Corteva Global Headquarters (Indianapolis, Indiana, USA). Natural light was supplemented with 1000-watt metal halide overhead lamps with an average illumination of 500 μE m^−2 s^−1 photosynthetic active radiation for 16 consecutive hours each day. Plants were top-watered prior to herbicide application and sub-watered after herbicide application.
(§2) Appropriate amounts of test materials were weighed out into glass vials in their technical form to deliver either 140 or 280 g acid equivalent (ae)/ha. The samples were dissolved in 3 ml of Solvent 1. Solvent 1 is 97% acetone and 3% dimethyl sulfoxide and serves as a general-purpose solvent (GPS) for dissolving technical materials. […] The samples were then diluted to their final concentration using 17 ml of solvent 2 for a total of 20 ml of spray solution. Solvent 2 contains 41.58% GPS, 45.53% water, 11.88% isopropyl alcohol, 0.99% crop oil concentrate and 0.02% Trition X-155 surfactant. All percentages are listed on a volume basis. Dicamba diglycolamine was applied as a formulated herbicide, Clarity™ and diluted with solvent 2 to compare all materials in the same spray solution.
(§3) Herbicide applications were made to 3 to 4 replicates of each plant species at the 2 to 8 leaf stage, depending on the species. Treatments were applied with a research track-sprayer (Generation III Research Sprayer manufactured by DeVries Manufacturing in Hollandale, MN, USA) calibrated to deliver a spray volume of 187 L/ha. The track-sprayer was fitted with an 8003E nozzle from Spray Systems Company (North Avenue and Schmale Road, P.O. Box 7900, Wheaton, IL 60187), and used a spray pressure of 276 kPa pressure and a speed of 3.1 km/h. The nozzle height was 46 cm above the plant canopy. The experimental design used for the trials was a randomized complete block with 3 or 4 replications per treatment. After application, plants were placed on carts according to the randomization and returned to the greenhouse. Plants were sub-watered after treatment with Indianapolis city water or fertilized three times a week with a commercial fertilizer solution (Jack's Professional 15-5-15 4 Ca 2 Mg fertilizer (manufactured by JR PETERS INC., 6656 Grant Way, Allentown, PA 18106; www.jrpeters.com). Percent visual control assessments were made on a scale of 0 to 100% (where 0 was no control and 100 was complete plant death) at 7, 14, and 21 days after treatment.
(§4) In conformity with the methods outlined in Example 49, the effect of representative experimental compounds on the growth of Amaranthus rudis (AMATA), common name tall water hemp, was determined at 2 different levels (respectively, 140 and 280 g acid equivalent (ae)/ha) of the experimental actives tested. Plants were treated with one of the compounds, a control plant was not treated. Twenty-one days after treatment, the plants were measured. The data is present as a percent reduction in plant size relative to the untreated control.

[1] = test system: Ambrosia artemisiifolia (AMBEL); assay type: in vivo, Ambrosia artemisiifolia (common ragweed); details: post-emergence, 504 h, AMBEL, postemergence, read-out: Control/Injury; for pest or weed control at 140 g/ha: rate 140 g ae/ha; for pest or weed control at 280 g/ha: rate 280 g ae/ha
Method: as §1, §2, §3
as §4, with “Ambrosia artemisiifolia (AMBEL), (common ragweed),” for “Amaranthus rudis (AMATA), common name tall water hemp,”

[2] = test system: Conyza canadensis (L.) (ERICA); assay type: in vivo, Conyza canadensis (L.) (Horseweed); details: Erigeron canadensis, post-emergence, 504 h, ERICA, postemergence, read-out: Control/Injury; for pest or weed control at 140 g/ha: rate 140 g ae/ha; for pest or weed control at 280 g/ha: rate 280 g ae/ha
Method: as §1, §2, §3
as §4, with “Conyza canadensis (L.), (ERICA),” for “Amaranthus rudis (AMATA),”, “name, Horseweed,” for “name tall water hemp,”

[3] = test system: Amaranthus palmeri (AMAPA); assay type: in vivo, Amaranthus palmeri (Palmer amaranth); details: post-emergence, 504 h, postemergence, read-out: Control/Injury; for pest or weed control at 140 g/ha: rate 140 g ae/ha; for pest or weed control at 280 g/ha: rate 280 g ae/ha
Method: as §1, §2, §3
as §4, with “palmeri (AMAPA),” for “rudis (AMATA),”, “name, Palmer amaranth,” for “name tall water hemp,”

Kochia scoparia (KCHSC) = assay type: in vivo; details: Bassia scoparia, post-emergence, 504 h, KCHSC, postemergence, read-out: Control/Injury; for pest or weed control at 140 g/ha: rate 140 g ae/ha; for pest or weed control at 280 g/ha: rate 280 g ae/ha
Method: as §1, §2, §3
as §4, with “Kochia scoparia (KCHSC)” for “Amaranthus rudis (AMATA), common name tall water hemp,”

[4] = percent reduction vs untreated, 21 days after treatment
[5] = percent reduction vs untreated control, 21 days after treatment
[6] = R-AMAPA, percent reduction vs untreated control, 21 days after treatment

| SMILES | pest or weed control at 140 g/ha (Amaranthus rudis (AMATA)) | pest or weed control at 280 g/ha (Amaranthus rudis (AMATA)) | pest or weed control at 140 g/ha [1] | pest or weed control at 280 g/ha [1] | pest or weed control at 140 g/ha [2] | pest or weed control at 280 g/ha [2] | pest or weed control at 140 g/ha ([3]; AMAPA) | pest or weed control at 280 g/ha ([3]; AMAPA) | pest or weed control at 140 g/ha (Kochia scoparia (KCHSC); [4]) | pest or weed control at 280 g/ha (Kochia scoparia (KCHSC); [4]) | pest or weed control at 140 g/ha [2, 5] | pest or weed control at 280 g/ha [2, 5] | pest or weed control at 140 g/ha [3, 6] | pest or weed control at 280 g/ha [3, 6] | pest or weed control at 140 g/ha (Kochia scoparia (KCHSC)) | pest or weed control at 280 g/ha (Kochia scoparia (KCHSC)) |
| --- | --- | --- | --- | --- | --- | --- | --- | --- | --- | --- | --- | --- | --- | --- | --- | --- |
| COc1c(Cl)ccc(Cl)c1C(=O)NOc1ccccc1 [Compound A-124] | 3% | 10% | 20% | 28% | 0% | 3% | 4% | 3% | 0% | 0% | – | – | – | – | – | – |
| COc1c(Cl)ccc(Cl)c1C(=O)OCc1cc(COC(=O)c2c(Cl)ccc(Cl)c2OC)cc(COC(=O)c2c(Cl)ccc(Cl)c2OC)c1 [Compound A-123] | 0% | 8% | 5% | 5% | 0% | 0% | 2% | 3% | 0% | 0% | – | – | – | – | – | – |
| COc1c(Cl)ccc(Cl)c1C(=O)n1ccnc1 [Compound A-126] | 45% | 55% | 33% | 50% | 15% | 33% | 33% | 35% | 28% | 50% | – | – | – | – | – | – |
| COc1c(Cl)ccc(Cl)c1C(=O)O/N=C/C(C)=O [Compound A-69] | 67% | 80% | 80% | 96% | – | – | – | – | – | – | 88% | 91% | 70% | 80% | 91% | 96% |
| COc1c(Cl)ccc(Cl)c1C(=O)n1oc2ccccc2c1=O [Compound A-130] | 20% | 28% | 40% | 48% | 13% | 28% | 18% | 20% | 45% | 45% | – | – | – | – | – | – |
| COc1c(Cl)ccc(Cl)c1C(=O)O/N=C/c1ccccc1 [Compound A-70] | 52% | 77% | 78% | 97% | – | – | – | – | – | – | 87% | 93% | 72% | 78% | 73% | 88% |
| COc1c(Cl)ccc(Cl)c1C(=O)ONC(N)=O [Compound A-67] | 0% | 2% | 3% | 3% | – | – | – | – | – | – | 2% | 3% | 13% | 10% | 3% | 2% |
| COc1c(Cl)ccc(Cl)c1C(=O)NOC1CCCCO1 (centres unmarked) [Compound A-100] | 0% | 19% | 5% | 20% | 8% | 13% | 0% | 15% | 0% | 0% | – | – | – | – | – | – |
| COc1c(Cl)ccc(Cl)c1C(=O)ON(Cc1ccccc1)Cc1ccccc1 [Compound A-72] | 63% | 74% | 82% | 98% | – | – | – | – | – | – | 83% | 92% | 72% | 83% | 82% | 94% |
| COc1c(Cl)ccc(Cl)c1C(=O)Nc1ccon1 [Compound A-106] | 25% | 28% | 25% | 28% | 5% | 10% | 25% | 20% | 3% | 3% | – | – | – | – | – | – |
| COc1c(Cl)ccc(Cl)c1C(=O)n1cnc2ccccc21 [Compound A-115] | 15% | 38% | 5% | 28% | 3% | 13% | 20% | 38% | 8% | 13% | – | – | – | – | – | – |

— patent US20240122179A1, “AUXINIC HERBICIDES AND METHODS OF USE THEREOF” (CORTEVA AGRISCIENCE LLC, priority 2021, published 2024)
